Results reported in the supplement of paper PMC11061612.

Columns and labels:
[1] = compound: C1CC(C1)(C(=O)[O-])C(=O)[O-].N.N.[Pt+2] [Carboplatin]; conditions: max 10 µM
Method in brief: (§1)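 Cancer cell lines were plated in 1536-well plates in 7.5 μl of DMEM/F12 or RPMI with 10% FBS and kept 24 hours at 37°C and 5% CO2 before 72 hours of dosing, with final DMSO typically 0.2%. CellTiter-Glo 2.0 luminescence measured viability, scaled between blank-well and DMSO-well means. Dose responses were fitted to a two-parameter logistic curve with a non-linear mixed effects model. This fit gives the single-agent IC50.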

[2] = compound: C1CN(CCC1(C(=O)N[C@@H](CCO)C2=CC=C(C=C2)Cl)N)C3=NC=NC4=C3C=CN4 [AZD5363]; conditions: max 10 µM
Method in brief: as §1

[3] = compound: C=CCn1c(=O)c2cnc(Nc3ccc(N4CCN(C)CC4)cc3)nc2n1-c1cccc(C(C)(C)O)n1 [AZD1775]
Method in brief: as §1

[4] = compound: CC(=O)Nc1cccc(-n2c(=O)n(C3CC3)c(=O)c3c(Nc4ccc(I)cc4F)n(C)c(=O)c(C)c32)c1 [Trametinib]; conditions: max 1 µM
Method in brief: as §1

[5] = compound: CC(=O)O[C@H]1C(=O)[C@@]2(C)[C@H]([C@H](OC(=O)c3ccccc3)[C@]3(O)C[C@H](OC(=O)[C@H](O)[C@@H](NC(=O)c4ccccc4)c4ccccc4)C(C)=C1C3(C)C)[C@]1(OC(C)=O)CO[C@@H]1C[C@@H]2O [Paclitaxel]; conditions: max 3 µM
Method in brief: as §1

[6] = compound: CC(=O)c1c(C)c2cnc(Nc3ccc(N4CCNCC4)cn3)nc2n(C2CCCC2)c1=O [Palbociclib]; conditions: max 10 µM
Method in brief: as §1

[7] = compound: CC(C)n1c(=O)n(C)c2cnc3cc(F)c(-c4ccc(OCCCN5CCCCC5)nc4)cc3c21 [AZD1390]; conditions: max 0.3 µM
Method in brief: as §1

[8] = compound: CC1(C)CCC(CN2CCN(c3ccc(C(=O)NS(=O)(=O)c4ccc(NCC5CCOCC5)c([N+](=O)[O-])c4)c(Oc4cnc5[nH]ccc5c4)c3)CC2)=C(c2ccc(Cl)cc2)C1 [Venetoclax]; conditions: max 1 µM
Method in brief: as §1

[9] = compound: CC1=C(C(=CC=C1)Cl)NC(=O)C2=CN=C(S2)NC3=CC(=NC(=N3)C)N4CCN(CC4)CCO [Dasatinib]; conditions: max 2 µM
Method in brief: as §1

[10] = compound: CC1=CN2[C@@H](C1)C=NC3=CC(=C(C=C3C2=O)OC)OCCCCCOC4=C(C=C5C(=C4)N=C[C@@H]6CC(=CN6C5=O)C)OC [SG3199]; conditions: max 0.001 µM
Method in brief: as §1

[11] = compound: CCN(CCO)CCCOc1ccc2c(Nc3cc(CC(=O)Nc4cccc(F)c4)[nH]n3)ncnc2c1 [AZD2811]; conditions: max 1 µM
Method in brief: as §1

[12] = compound: CCc1c2c(nc3ccc(O)cc13)-c1cc3c(c(=O)n1C2)COC(=O)[C@]3(O)CC [SN-38]; conditions: max 0.3 µM
Method in brief: as §1

[13] = compound: CN(C)CCCOc1ccc(-c2ccc3ncc4c(c3c2)n(C2CCOCC2)c(=O)n4C)cn1 [AZD0156]
Method in brief: as §1

[14] = compound: CN(CC[C@H](CSC1=CC=CC=C1)NC2=C(C=C(C=C2)S(=O)(=O)NC(=O)C3=CC=C(C=C3)N4CCC(CC4)[C@H](C5=CC=CC=C5C6=CC=C(C=C6)Cl)O)S(=O)(=O)C(F)(F)F)CCO [AZD4320]; conditions: max 1 µM
Method in brief: as §1

[15] = compound: COc1cc(Nc2ncc3c(n2)-c2ccc(Cl)cc2C(c2c(F)cccc2OC)=NC3)ccc1C(=O)O [Alisertib]; conditions: max 10 µM
Method in brief: as §1

[16] = compound: COc1cc([C@@H]2c3cc4c(cc3[C@@H](O[C@@H]3O[C@@H]5CO[C@@H](C)O[C@H]5[C@H](O)[C@H]3O)[C@H]3COC(=O)[C@H]23)OCO4)cc(OC)c1O [Etoposide]; conditions: max 10 µM
Method in brief: as §1

[17] = compound: COc1cc2ncnc(Nc3ccc(F)c(Cl)c3)c2cc1OCCCN1CCOCC1 [Gefitinib]; conditions: max 10 µM
Method in brief: as §1

[18] = compound: COc1cccc(OCCCN)c1-c1cc(Nc2cnc(C#N)cn2)n[nH]1 [Prexasertib]; conditions: max 1 µM
Method in brief: as §1

[19] = compound: COc1cccc2c1C(=O)c1c(O)c3c(c(O)c1C2=O)C[C@@](O)(C(=O)CO)C[C@@H]3O[C@H]1C[C@H](N)[C@H](O)[C@H](C)O1 [Doxorubicin]; conditions: max 1 µM
Method in brief: as §1

[20] = compound: COc1nnc2ccc(N3CCC(c4ccc(OCCN5CCN(C)C(=O)[C@H]5C)cc4)CC3)nn12 [AZD5153]; conditions: max 1 µM
Method in brief: as §1

[21] = compound: CS(=O)(=O)CCNCc1ccc(-c2ccc3ncnc(Nc4ccc(OCc5cccc(F)c5)c(Cl)c4)c3c2)o1 [Lapatinib]; conditions: max 10 µM
Method in brief: as §1

[22] = compound: C[C@@H](Nc1cc(F)cc(F)c1)c1cc(C(=O)N(C)C)cc2c(=O)cc(N3CCOCC3)oc12 [AZD8186]; conditions: max 10 µM
Method in brief: as §1

[23] = compound: C[C@@H](Oc1cc(-c2cnn(C3CCNCC3)c2)cnc1N)c1c(Cl)ccc(F)c1Cl [Crizotinib]; conditions: max 10 µM
Method in brief: as §1

[24] = compound: C[C@@H](c1ccc2nccn2c1)n1nnc2ncc(-c3cnn(C)c3)nc21 [Savolitinib]; conditions: max 1 µM
Method in brief: as §1

[25] = compound: C[C@@H]1COCCN1C2=NC(=NC(=C2)C3(CC3)[S@](=N)(=O)C)C4=C5C=CNC5=NC=C4 [AZD6738]; conditions: max 10 µM
Method in brief: as §1

[26] = compound: Cc1c2c(nn1C)CSCc1cc(n(C)n1)CSc1cc(c3ccccc3c1)OCCCc1c(C(=O)O)n(C)c3c-2c(Cl)ccc13 [AZD5991]; conditions: max 1 µM
Method in brief: as §1

[27] = compound: Cc1cc2ncnn2cc1Nc1ncc2c(n1)n(C1CCOCC1)c(=O)n2C [AZD7648]; conditions: max 10 µM
Method in brief: as §1

[28] = compound: Cc1nc(-c2cn3c(n2)-c2ccc(-c4cnn(C(C)(C)C(N)=O)c4)cc2OCC3)n(C(C)C)n1 [Taselisib]; conditions: max 10 µM
Method in brief: as §1

[29] = compound: Cn1cnc2c(F)c(Nc3ccc(Br)cc3Cl)c(C(=O)NOCCO)cc21 [Selumetinib]; conditions: max 10 µM
Method in brief: as §1

[30] = compound: N#Cc1cnc(Nc2cc(NC[C@H]3CNCCO3)c(C(F)(F)F)cn2)cn1 [SRA737]; conditions: max 10 µM
Method in brief: as §1

[31] = compound: NC1(c2ccc(-c3nc4ccn5c(=O)[nH]nc5c4cc3-c3ccccc3)cc2)CCC1 [MK-2206]; conditions: max 10 µM
Method in brief: as §1

[32] = compound: Nc1ccn([C@@H]2O[C@H](CO)[C@@H](O)C2(F)F)c(=O)n1 [Gemcitabine]; conditions: max 0.3 µM
Method in brief: as §1

[33] = compound: O=C(Nc1ccc2[nH]nc(-c3ccncc3)c2c1)[C@@H]1CCN(CC(=O)N2CCN(c3ccc(-c4ncccn4)cc3)CC2)C1; conditions: max 5 µM
Method in brief: as §1

[34] = compound: O=C(c1cc(Cc2n[nH]c(=O)c3ccccc23)ccc1F)N1CCN(C(=O)C2CC2)CC1 [Olaparib]; conditions: max 10 µM
Method in brief: as §1

[35] = compound: O=c1[nH]cc(F)c(=O)[nH]1 [5-Fluorouracil]; conditions: max 20 µM
Method in brief: as §1

| Cell Line | IC50, cell viability 72 h [1] | IC50, cell viability 72 h [2] | IC50, cell viability 72 h ([3]; max 1 µM) | IC50, cell viability 72 h [4] | IC50, cell viability 72 h [5] | IC50, cell viability 72 h [6] | IC50, cell viability 72 h [7] | IC50, cell viability 72 h [8] | IC50, cell viability 72 h [9] | IC50, cell viability 72 h [10] | IC50, cell viability 72 h [11] | IC50, cell viability 72 h [12] | IC50, cell viability 72 h ([13]; max 1 µM) | IC50, cell viability 72 h [14] | IC50, cell viability 72 h [15] | IC50, cell viability 72 h [16] | IC50, cell viability 72 h [17] | IC50, cell viability 72 h [18] | IC50, cell viability 72 h [19] | IC50, cell viability 72 h [20] | IC50, cell viability 72 h [21] | IC50, cell viability 72 h [22] | IC50, cell viability 72 h [23] | IC50, cell viability 72 h [24] | IC50, cell viability 72 h [25] | IC50, cell viability 72 h [26] | IC50, cell viability 72 h [27] | IC50, cell viability 72 h [28] | IC50, cell viability 72 h [29] | IC50, cell viability 72 h [30] | IC50, cell viability 72 h [31] | IC50, cell viability 72 h [32] | IC50, cell viability 72 h [33] | IC50, cell viability 72 h [34] | IC50, cell viability 72 h [35] | IC50, cell viability 72 h ([3]; max 3 µM) | IC50, cell viability 72 h ([13]; max 3 µM) |
| --- | --- | --- | --- | --- | --- | --- | --- | --- | --- | --- | --- | --- | --- | --- | --- | --- | --- | --- | --- | --- | --- | --- | --- | --- | --- | --- | --- | --- | --- | --- | --- | --- | --- | --- | --- | --- | --- |
| TE-8 (Esophageal Squamous Cell Carcinoma) | > 10 µM | > 10 µM | 0.503 µM | 0.633 µM | 0.109 µM | > 10 µM | > 0.3 µM | > 1 µM | 0.362 µM | > 0.001 µM | > 1 µM | 0.169 µM | > 1 µM | > 1 µM | 5.14 µM | > 10 µM | > 10 µM | 0.0243 µM | > 1 µM | > 1 µM | > 10 µM | > 10 µM | > 10 µM | > 1 µM | 4.15 µM | > 1 µM | > 10 µM | 2.65 µM | > 10 µM | > 10 µM | > 10 µM | > 0.3 µM | 3.84 µM | > 10 µM | > 20 µM |  |  |
| VAL (B-Cell Non-Hodgkin's Lymphoma) | > 10 µM | 5.13 µM |  | > 1 µM | 0.0573 µM | 2.66 µM | > 0.3 µM | 0.0315 µM | 0.0919 µM | > 0.001 µM | 0.141 µM | 0.00177 µM |  | 0.0365 µM | 0.0606 µM | 0.261 µM | > 10 µM | 0.00612 µM | 0.028 µM | 0.0618 µM | > 10 µM | 2.45 µM | 4.62 µM | > 1 µM | 1.03 µM | 0.446 µM | 8.52 µM | 2.28 µM | > 10 µM | 1.47 µM | 1.87 µM | 0.00894 µM | > 5 µM | 8.57 µM | > 20 µM | 0.416 µM | > 3 µM |
